Measurements reported in the supplement of paper PMC11061612.

What was measured:
Experiment in all cases: combination Emax (second highest fraction inhibited in the dose matrix, 72 h); higher = more inhibition; extreme values may be limits of the assay
NCI-H2461 (Mesothelioma) = tested on: NCI-H2461 (Mesothelioma)
How it was run: (§1)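 Bliss excess equals the observed combination effect minus the expected value EA + EB − EA·EB, where EA and EB are the effects of each agent alone. Combination Emax is the second-highest inhibition within the matrix. Inhibition was scaled from CellTiter-Glo 2.0 luminescence, with 0 set by vehicle wells and 1 by blank wells, after 72 hours of two-drug dosing of cells plated in 1536-well plates.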

Mewo (Melanoma) = tested on: Mewo (Melanoma)
How it was run: as §1

[1] = tested on: PCI-30 (Head and Neck Carcinoma)
How it was run: as §1

[2] = tested on: 8305C (Thyroid Gland Carcinoma)
How it was run: as §1

[3] = tested on: SW1116 (Colorectal Carcinoma)
How it was run: as §1

[4] = tested on: CAL-54 (Kidney Carcinoma)
How it was run: as §1

[5] = tested on: RPMI-6666 (Non-Cancerous)
How it was run: as §1

[6] = tested on: LU-139 (Small Cell Lung Carcinoma)
How it was run: as §1

[7] = tested on: RT-112 (Bladder Carcinoma)
How it was run: as §1

HMV-II (Melanoma) = tested on: HMV-II (Melanoma)
How it was run: as §1

[8] = tested on: SU-DHL-6 (B-Cell Non-Hodgkin's Lymphoma)
How it was run: as §1

[9] = tested on: Hs-633T (Other Solid Carcinomas)
How it was run: as §1

COLO-829 (Melanoma) = tested on: COLO-829 (Melanoma)
How it was run: as §1

[10] = tested on: KARPAS-231 (B-Cell Non-Hodgkin's Lymphoma)
How it was run: as §1

[11] = tested on: CAL-51 (Breast Carcinoma)
How it was run: as §1

[12] = tested on: NCI-H747 (Colorectal Carcinoma)
How it was run: as §1

[13] = tested on: 639-V (Bladder Carcinoma)
How it was run: as §1

[14] = tested on: UMC-11 (Other Solid Carcinomas)
How it was run: as §1

[15] = tested on: TE-4 (Esophageal Squamous Cell Carcinoma)
How it was run: as §1

Row | Structure (SMILES) | combination Emax (NCI-H2461 (Mesothelioma)) | combination Emax (Mewo (Melanoma)) | combination Emax [1] | combination Emax [2] | combination Emax [3] | combination Emax [4] | combination Emax [5] | combination Emax [6] | combination Emax [7] | combination Emax (HMV-II (Melanoma)) | combination Emax [8] | combination Emax [9] | combination Emax (COLO-829 (Melanoma)) | combination Emax [10] | combination Emax [11] | combination Emax [12] | combination Emax [13] | combination Emax [14] | combination Emax [15]
1 | Cc1nc(-c2cn3c(n2)-c2ccc(-c4cnn(C(C)(C)C(N)=O)c4)cc2OCC3)n(C(C)C)n1 [Taselisib] + O=C(Nc1ccc2[nH]nc(-c3ccncc3)c2c1)[C@@H]1CCN(CC(=O)N2CCN(c3ccc(-c4ncccn4)cc3)CC2)C1 [SCH772984] (first compound max 10 µM, 7x7, partner max 5 µM) | 0.6 | 0.777 | 0.4 | 0.843 | 0.521 | 0.816 | 0.716 | 0.154 | 0.802 | 0.867 | 1 | 0.834 | – | – | – | – | – | – | –
2 | COc1nnc2ccc(N3CCC(c4ccc(OCCN5CCN(C)C(=O)[C@H]5C)cc4)CC3)nn12 [AZD5153] + Cn1cnc2c(F)c(Nc3ccc(Br)cc3Cl)c(C(=O)NOCCO)cc21 [Selumetinib] (first compound max 1 µM, 7x7, partner max 10 µM) | 0.501 | 0.663 | 0.368 | 0.576 | 0.699 | 0.765 | 0.692 | 0.912 | 0.436 | 0.927 | 0.913 | 0.748 | 0.663 | 0 | 0.712 | 0.937 | 0.676 | 0.704 | 0.871
3 | C=CCn1c(=O)c2cnc(Nc3ccc(N4CCN(C)CC4)cc3)nc2n1-c1cccc(C(C)(C)O)n1 [AZD1775] + CCc1c2c(nc3ccc(O)cc13)-c1cc3c(c(=O)n1C2)COC(=O)[C@]3(O)CC [SN-38] (first compound max 1 µM, partner max 0.3 µM) | 0.702 | 0.676 | 0.836 | 0.589 | 0.43 | 0.843 | 0.917 | 0.849 | 0.985 | 0.634 | 1 | 0.868 | – | – | – | – | – | – | –
4 | CN(C)CCCOc1ccc(-c2ccc3ncc4c(c3c2)n(C2CCOCC2)c(=O)n4C)cn1 [AZD0156] + O=C(c1cc(Cc2n[nH]c(=O)c3ccccc23)ccc1F)N1CCN(C(=O)C2CC2)CC1 [Olaparib] (first compound max 3 µM, partner max 3 µM) | 0.292 | 0.322 | 0.234 | 0.441 | 0.206 | 0.369 | 0.458 | 0.264 | 0.228 | 0.383 | 0.729 | 0.57 | 0.0677 | 0.371 | 0.296 | 0.339 | 0.443 | 0.246 | 0.206
5 | NC1(C(=O)N[C@@H](CCO)c2ccc(Cl)cc2)CCN(c2ncnc3[nH]ccc23)CC1 [Capivasertib] + CC(C)n1c(=O)n(C)c2cnc3cc(F)c(-c4ccc(OCCCN5CCCCC5)nc4)cc3c21 [AZD1390] (first compound max 10 µM, 7x7, partner max 0.3 µM) | 0.6 | 0.365 | 0.298 | 0.436 | 0.215 | 0.466 | 0.715 | 0.0539 | 0.255 | 0.358 | 1 | 0.258 | 0.201 | 0.215 | 0.488 | 0.523 | 0.252 | 0.201 | 0.616
6 | CC(=O)c1c(C)c2cnc(Nc3ccc(N4CCNCC4)cn3)nc2n(C2CCCC2)c1=O [Palbociclib] + Cc1c2c(nn1C)CSCc1cc(n(C)n1)CSc1cc(c3ccccc3c1)OCCCc1c(C(=O)O)n(C)c3c-2c(Cl)ccc13 [AZD5991] (first compound max 10 µM, 7x7, partner max 1 µM) | 0.377 | 0.569 | 0.276 | 0.666 | 0.164 | 0.583 | 0.73 | 0.25 | 0.568 | 0.625 | 1 | 0.519 | 0.388 | 0.657 | 0.357 | 0.608 | 0.269 | 0.638 | 0.966
7 | CS(=O)(=O)CCNCc1ccc(-c2ccc3ncnc(Nc4ccc(OCc5cccc(F)c5)c(Cl)c4)c3c2)o1 [Lapatinib] + Cn1cnc2c(F)c(Nc3ccc(Br)cc3Cl)c(C(=O)NOCCO)cc21 [Selumetinib] (first compound max 10 µM, 7x7, partner max 10 µM) | 0.488 | 0.503 | 0.335 | 0.542 | 0.73 | 0.559 | 0.462 | 0.161 | 0.486 | 0.768 | 0.974 | 0.478 | – | – | – | – | – | – | –
8 | CS(=O)(=O)CCNCc1ccc(-c2ccc3ncnc(Nc4ccc(OCc5cccc(F)c5)c(Cl)c4)c3c2)o1 [Lapatinib] + NC1(c2ccc(-c3nc4ccn5c(=O)[nH]nc5c4cc3-c3ccccc3)cc2)CCC1 [MK-2206] (first compound max 10 µM, 7x7, partner max 10 µM) | 0.495 | 0.521 | 0.475 | 0.929 | 0.627 | 0.921 | 0.766 | 0.672 | 0.917 | 0.904 | 1 | 0.905 | 0.311 | – | – | 0.898 | – | – | –
